Test results: US11006626B2, “Compounds for protection of cells” (Sulfateq B.V., priority 2012, dated 2021)

Tests used:
Format in all cases: cell-based
apherese blood platelets = test: Apheresis platelets stored with Sul 136, hematology analysis (platelet count, MPV); conditions: stored at 4° C. with Sul 136
From the text: Platelets were obtained via standard plateletpheresis procedures either on Haemonetics (donor 2611811 and donor 2611855) or on Cobe instruments (donor 2611770). According the protocol all units would be obtained with plateletpheresis procedure with the Cobe instrument, but from the three donations two were not passing the blood bank quality control criteria. Nevertheless, all platelet donations have a similar concentration and a similar platelet quality. In none of the platelet concentrates clots were found. The freshly harvested platelets are weighed on a balance and for sampling of platelet concentrate a small PVC bag was seal-docked to the main platelet concentrate bag. Standard homogenization of platelet concentrate has to be done with a roller before sampling. 300 μM suspension of Sul 136 is added with a procedure, which keeps the bag content sterile and the Sul 136 is kept in suspension by frequent whirling and stored at 37° C. before it is added to the freshly harvested platelets. The Sul 136 suspension is added to three platelet bags directly from the bag. After addition, the content of the platelet bag is gently mixed. After 2 hours the first sample is drawn with a seal-docked sample bag. The sample bag is disconnected by welding and from this sample bag the samples are taken for hematology analyzing, aggregometer tests and the flow-cytometry tests. Swirling in the bag is reported by experience of the laboratory worker in the standard format. Platelets without Sul 136 put on a flatbed shaker and stored at room temperature were used as control. Another control is stored at 4° C. Platelet samples in which Sul 136 is added, are stored without shaking in a refrigerator at 4° C.

PRP platelets [1] = test: PRP platelets stored with Sul 136, aggregation after stimulation with collagen; conditions: 10 mM
Method: (§1) […] • The color and coagulation properties were visually analysed. • The thrombocyte cells that survived were counted and it was evaluated whether the thrombocytes were aggregated. • It was evaluated if the thrombocytes still were able to function after stimulation by the addition of ADP or under influence of collagen in a 96 well plate. • The adhesion was evaluated, meaning the ability of the platelets to bind collagen in a 6 well plate preincubated with collagen. • Via an ELISA assay, it was evaluated whether thromboxane was secreted from the platelets. Thromboxane facilitates aggregation and is produced by activated blood platelets.
(+means that the cells show aggregation, ++means strong aggregation, these platelets can thus be activated upon stimulation, −means no aggregation upon stimulation)

PRP platelets [2] = test: PRP platelets stored with Sul 136, aggregation after stimulation with ADP; set-up: key to aggregation of the platelets after stimulation with ADP: +means that the cells show aggregation and can thus be activated upon stimulation; −means no aggregation upon stimulation
Method: as §1
(+means that the cells show aggregation and can thus be activated upon stimulation, −means no aggregation upon stimulation)

Cc1c(C)c2c(c(C)c1O)CCC(C)(C(=O)N1CCN(CC(=O)O)CC1)O2 (racemic) [SUL - 136, 2-(4-(6-hydroxy-2,5,7,8-tetramethylchroman-2-carbonyl)piperazin-1-yl)acetic acid]
MPV (apherese blood platelets; Donor 2, Day 1): 10.1 fL | Platelets/μl (apherese blood platelets; Donor 2, Day 1): 1,004,000 Platelets/μl | MPV (apherese blood platelets; Donor 2, Day 2): 7.6 fL | Platelets/μl (apherese blood platelets; Donor 2, Day 2): 1,272,000 Platelets/μl | MPV (apherese blood platelets; Donor 2, Day 3): 7.8 fL | Platelets/μl (apherese blood platelets; Donor 2, Day 3): 1,220,000 Platelets/μl | MPV (apherese blood platelets; Donor 2, Day 5): 8.0 fL | Platelets/μl (apherese blood platelets; Donor 2, Day 5): 1,252,000 Platelets/μl | MPV (apherese blood platelets; Donor 2, Day 8): 8.0 fL | Platelets/μl (apherese blood platelets; Donor 2, Day 8): 1,168,000 Platelets/μl | MPV (apherese blood platelets; Donor 2, Day 10): 8.1 fL | Platelets/μl (apherese blood platelets; Donor 2, Day 10): 1,104,000 Platelets/μl | MPV (apherese blood platelets; Donor 2, Day 12): 8.6 fL | Platelets/μl (apherese blood platelets; Donor 2, Day 12): 1,032,000 Platelets/μl | MPV (apherese blood platelets; Donor 2, Day 19): 8.8 fL | Platelets/μl (apherese blood platelets; Donor 2, Day 19): 860,000 Platelets/μl | MPV (apherese blood platelets; Donor 3, Day 1): 10.3 fL | Platelets/μl (apherese blood platelets; Donor 3, Day 1): 980,000 Platelets/μl | MPV (apherese blood platelets; Donor 3, Day 2): 7.7 fL | Platelets/μl (apherese blood platelets; Donor 3, Day 2): 1,188,000 Platelets/μl | MPV (apherese blood platelets; Donor 3, Day 3): 7.7 fL | Platelets/μl (apherese blood platelets; Donor 3, Day 3): 1,072,000 Platelets/μl | MPV (apherese blood platelets; Donor 3, Day 5): 8.0 fL | Platelets/μl (apherese blood platelets; Donor 3, Day 5): 1,068,000 Platelets/μl | MPV (apherese blood platelets; Donor 3, Day 8): 8.3 fL | Platelets/μl (apherese blood platelets; Donor 3, Day 8): 992,000 Platelets/μl | MPV (apherese blood platelets; Donor 3, Day 10): 8.3 fL | Platelets/μl (apherese blood platelets; Donor 3, Day 10): 892,000 Platelets/μl | MPV (apherese blood platelets; Donor 3, Day 12): 9.0 fL | Platelets/μl (apherese blood platelets; Donor 3, Day 12): 912,000 Platelets/μl | MPV (apherese blood platelets; Donor 3, Day 19): 9.5 fL | Platelets/μl (apherese blood platelets; Donor 3, Day 19): 692,000 Platelets/μl | MPV (apherese blood platelets; donor 1, Day 1): 10.6 fL | Platelets/μl (apherese blood platelets; donor 1, Day 1): 1,000,000 Platelets/μl | MPV (apherese blood platelets; donor 1, Day 2): 9.5 fL | Platelets/μl (apherese blood platelets; donor 1, Day 2): 1,192,000 Platelets/μl | MPV (apherese blood platelets; donor 1, Day 3): 9.2 fL | Platelets/μl (apherese blood platelets; donor 1, Day 3): 1,240,000 Platelets/μl | MPV (apherese blood platelets; donor 1, Day 5): 9.1 fL | Platelets/μl (apherese blood platelets; donor 1, Day 5): 1,232,000 Platelets/μl | MPV (apherese blood platelets; donor 1, Day 8): 9.3 fL | Platelets/μl (apherese blood platelets; donor 1, Day 8): 1,352,000 Platelets/μl | MPV (apherese blood platelets; donor 1, Day 10): 9.6 fL | Platelets/μl (apherese blood platelets; donor 1, Day 10): 1,228,000 Platelets/μl | MPV (apherese blood platelets; donor 1, Day 12): 9.8 fL | Platelets/μl (apherese blood platelets; donor 1, Day 12): 1,204,000 Platelets/μl | MPV (apherese blood platelets; donor 1, Day 19): 8.8 fL | Platelets/μl (apherese blood platelets; donor 1, Day 19): 1,068,000 Platelets/μl | activity after stimulation with collagen (PRP platelets [1]): showed still activity | activity after stimulation with ADP (PRP platelets [2]; 10 mM): still showed activity | aggregation of the platelets after stimulation with ADP (PRP platelets [2]; 10 min 0.001 mM, 0 h): + | aggregation of the platelets after stimulation with ADP (PRP platelets [2]; 10 min 0.001 mM, 24 h): − | aggregation of the platelets after stimulation with ADP (PRP platelets [2]; 10 min 0.001 mM, 48 h): − | aggregation of the platelets after stimulation with ADP (PRP platelets [2]; 10 min 0.001 mM, 72 h): − | aggregation of the platelets after stimulation with ADP (PRP platelets [2]; 10 min 0.001 mM, 216 h): − | aggregation of the platelets after stimulation with ADP (PRP platelets [2]; 10 min 0.01 mM, 0 h): + | aggregation of the platelets after stimulation with ADP (PRP platelets [2]; 10 min 0.01 mM, 24 h): − | aggregation of the platelets after stimulation with ADP (PRP platelets [2]; 10 min 0.01 mM, 48 h): − | aggregation of the platelets after stimulation with ADP (PRP platelets [2]; 10 min 0.01 mM, 72 h): − | aggregation of the platelets after stimulation with ADP (PRP platelets [2]; 10 min 0.01 mM, 216 h): − | aggregation of the platelets after stimulation with ADP (PRP platelets [2]; 10 min 0.1 mM, 0 h): + | aggregation of the platelets after stimulation with ADP (PRP platelets [2]; 10 min 0.1 mM, 24 h): − | aggregation of the platelets after stimulation with ADP (PRP platelets [2]; 10 min 0.1 mM, 48 h): − | aggregation of the platelets after stimulation with ADP (PRP platelets [2]; 10 min 0.1 mM, 72 h): − | aggregation of the platelets after stimulation with ADP (PRP platelets [2]; 10 min 0.1 mM, 216 h): − | aggregation of the platelets after stimulation with ADP (PRP platelets [2]; 10 min 1 mM, 0 h): + | aggregation of the platelets after stimulation with ADP (PRP platelets [2]; 10 min 1 mM, 24 h): − | aggregation of the platelets after stimulation with ADP (PRP platelets [2]; 10 min 1 mM, 48 h): − | aggregation of the platelets after stimulation with ADP (PRP platelets [2]; 10 min 1 mM, 72 h): − | aggregation of the platelets after stimulation with ADP (PRP platelets [2]; 10 min 1 mM, 216 h): − | aggregation of the platelets after stimulation with ADP (PRP platelets [2]; 10 min 10 mM, 0 h): + | aggregation of the platelets after stimulation with ADP (PRP platelets [2]; 10 min 10 mM, 24 h): + | aggregation of the platelets after stimulation with ADP (PRP platelets [2]; 10 min 10 mM, 48 h): + | aggregation of the platelets after stimulation with ADP (PRP platelets [2]; 10 min 10 mM, 72 h): + | aggregation of the platelets after stimulation with ADP (PRP platelets [2]; 10 min 10 mM, 216 h): + | aggregation of the platelets after stimulation with ADP (PRP platelets [2]; 60 min 0.001 mM, 0 h): + | aggregation of the platelets after stimulation with ADP (PRP platelets [2]; 60 min 0.001 mM, 24 h): − | aggregation of the platelets after stimulation with ADP (PRP platelets [2]; 60 min 0.001 mM, 48 h): − | aggregation of the platelets after stimulation with ADP (PRP platelets [2]; 60 min 0.001 mM, 72 h): − | aggregation of the platelets after stimulation with ADP (PRP platelets [2]; 60 min 0.001 mM, 216 h): − | aggregation of the platelets after stimulation with ADP (PRP platelets [2]; 60 min 0.01 mM, 0 h): + | aggregation of the platelets after stimulation with ADP (PRP platelets [2]; 60 min 0.01 mM, 24 h): − | aggregation of the platelets after stimulation with ADP (PRP platelets [2]; 60 min 0.01 mM, 48 h): − | aggregation of the platelets after stimulation with ADP (PRP platelets [2]; 60 min 0.01 mM, 72 h): − | aggregation of the platelets after stimulation with ADP (PRP platelets [2]; 60 min 0.01 mM, 216 h): − | aggregation of the platelets after stimulation with ADP (PRP platelets [2]; 60 min 0.1 mM, 0 h): + | aggregation of the platelets after stimulation with ADP (PRP platelets [2]; 60 min 0.1 mM, 24 h): − | aggregation of the platelets after stimulation with ADP (PRP platelets [2]; 60 min 0.1 mM, 48 h): − | aggregation of the platelets after stimulation with ADP (PRP platelets [2]; 60 min 0.1 mM, 72 h): − | aggregation of the platelets after stimulation with ADP (PRP platelets [2]; 60 min 0.1 mM, 216 h): − | aggregation of the platelets after stimulation with ADP (PRP platelets [2]; 60 min 1 mM, 0 h): + | aggregation of the platelets after stimulation with ADP (PRP platelets [2]; 60 min 1 mM, 24 h): − | aggregation of the platelets after stimulation with ADP (PRP platelets [2]; 60 min 1 mM, 48 h): − | aggregation of the platelets after stimulation with ADP (PRP platelets [2]; 60 min 1 mM, 72 h): − | aggregation of the platelets after stimulation with ADP (PRP platelets [2]; 60 min 1 mM, 216 h): − | aggregation of the platelets after stimulation with ADP (PRP platelets [2]; 60 min 10 mM, 0 h): + | aggregation of the platelets after stimulation with ADP (PRP platelets [2]; 60 min 10 mM, 24 h): + | aggregation of the platelets after stimulation with ADP (PRP platelets [2]; 60 min 10 mM, 48 h): + | aggregation of the platelets after stimulation with ADP (PRP platelets [2]; 60 min 10 mM, 72 h): + | aggregation of the platelets after stimulation with ADP (PRP platelets [2]; 60 min 10 mM, 216 h): −
